Test results taken from US20240092831A1, “Proteasome Inhibitors” (Mayo Foundation for Medical Education and Research, priority 2019, published 2024).
Like-named read-outs stand apart in the source and are kept apart here. Non-standard residues stand in square brackets, D forms with d. Residues, ends and D or L forms follow the SMILES beside them. ξ: configuration not given here. *: point of attachment. Hydrocinnamoyl = O=C(CCc1ccccc1)*; ξF = NC(Cc1ccccc1)C(=O)O; Cbz = O=C(OCc1ccccc1)*

Columns and labels:
B1i = biological target: T1, B1i (Homo sapiens, UniProt P28065); assay: In vitro enzymatic potency of dual-β5/β1i inhibitors (Table 2); format: biochemical
T1 construct: endogenous in cells; host or cells: OPM2 and OPM2/BR multiple myeloma cell lines
Experimental: (§1) Methods: CD138+ cells from multiple myeloma patients, bortezomib-sensitive multiple myeloma cell lines (OPM2, KMS11 and U266) and their isogenic bortezomib resistant subclones were used in experiments. Fluorogenic peptide substrates were used to measure β-subunit-specific enzymatic activity. Gene disruption was conducted using 2 different shRNA hairpins for PSMB5 (β5) and PSMB9 ([…]). […] HT12v4 gene expression array and NanoString mRNA quantification were used for gene expression profiling (GEP), followed by qPCR for confirmation. Novel dual β5-β1i proteasome inhibitors were synthesized and tested in vitro. Apoptosis was determined by annexin-V/[…] staining and MTS/CellTiter Glo assay used to determine cell viability.
The results were shown for multiple myeloma cell lines (OPM2, OPM2/BR).

[1] = test system: bortezomib sensitive cells; assay: Cell viability (MTS/CellTiter Glo), bortezomib sensitive multiple myeloma cells; format: cell-based
Experimental: as §1

[2] = test system: bortezomib resistant cells; assay: Cell viability (MTS/CellTiter Glo), bortezomib resistant multiple myeloma cells; format: cell-based
Experimental: as §1

β5 = assay: Proteasome β5 enzyme activity in WM cell lines (fluorogenic substrate); format: cell-based; conditions: comparator
Experimental: (§2) Methodology: BWCM.1, MWCL-1 and RPCI-WM1 and isogenic PI-resistant subclones were used in experiments. WM cell viability determined by 72 hour CellTiter Glo assay. Proteasome enzyme activity was estimated by fluorogenic substrates specific for β5 and β1. Protein expression was determined by western blotting. Apoptosis was assessed by annexin-V/PI staining.
Results: Chemical compounds capable of inhibiting enzymatic activity of both β5 and β1 were prepared. […] (FIGS. 2B, 2C). […] In vitro proteasome enzyme activity at the β5 and β1 subunits was examined in all WM cell lines +/−Compound 1 (with bortezomib serving as a comparator).

β1 = biological target: T2, β1 (Homo sapiens, UniProt P28065); assay: Proteasome β1 enzyme activity in WM cell lines (fluorogenic substrate); format: cell-based; conditions: comparator
T2 construct: In vitro proteasome enzyme activity at the β5 and β1 subunits was examined in all WM cell lines +/−Compound 1; endogenous in cells; host or cells: BWCM.1 (BCWM.1), MWCL-1, RPCI-WM1 and isogenic bortezomib/PI-resistant subclones
Experimental: as §2

BCWM.1 = assay: MTS assay, BCWM.1; format: cell-based; conditions: BCWM1
BCWM.1/BR = assay: MTS assay, BCWM.1/BR; format: cell-based; conditions: BCWM1, bortezomib-resistant subclone
MWCL.1 = assay: MTS assay, MWCL.1; format: cell-based
MWCL.1/BR = assay: MTS assay, MWCL.1/BR; format: cell-based; conditions: bortezomib-resistant subclone
RPCI.WM1 = assay: MTS assay, RPCI.WM1; format: cell-based
RPCI.WM1/BR = assay: MTS assay, RPCI.WM1/BR; format: cell-based; conditions: bortezomib-resistant subclone

Molecule `CC(C)[C@H](NC(=O)c1ccncc1)C(=O)NC(C=O)Cc1ccccc1` (stereo partly shown) [Compound 12-2] has an IC50 (B1i; first column of Table 2) of 5000 nM and an IC50 (B1i; second column of Table 2) of 5000 nM.
For `O=CC(Cc1ccccc1)NC(=O)[C@H](Cc1ccccc1)NC(=O)OCc1ccccc1` (stereo partly drawn) [Compound 7-2] (Cbz-Phe-[ξF]-aldehyde), the IC50 (B1i; first column of Table 2) was 5000 nM and the IC50 (B1i; second column of Table 2) was 5000 nM.
For `CCOC(=O)/C(C#N)=C/C(Cc1ccccc1)NC(=O)[C@@H](NC(=O)OCc1ccccc1)C(C)C` (stereo partly shown) [Compound 15-2], the IC50 (B1i; first column of Table 2) was over 10000 nM and the IC50 (B1i; second column of Table 2) was 5000 nM.
`CC(C)[C@H](NC(=O)CCc1ccccc1)C(=O)NC(C=O)Cc1ccccc1` (stereo partly shown) [Compound 1-2] (Hydrocinnamoyl-Val-[ξF]-aldehyde) showed an IC50 (B1i; first column of Table 2) of 1000 nM and an IC50 (B1i; second column of Table 2) of 5000 nM.
`CC(C)C[C@H](NC(=O)[C@H](Cc1ccccc1)NC(=O)c1cnccn1)B(O)O` [Bortezomib, bortezomib] gave an IC50 [1] of 4 nM, an IC50 ([2]; bortezomib resistant cells, before PSMB9 downregulation, read-out: IC50 (shift from)) of 235 nM and an IC50 ([2]; bortezomib resistant cells, read-out: Bortezomib IC50) of 284 nM. The IC50 ([2]; bortezomib resistant-PSMB9 shRNA transfected cells, read-out: IC50 (shift to)) was 108 nM, the “effect on β5 enzymatic function” value (β5) was “only β5 enzymatic function” and the “effect on β1 activity” value (β1) was “did not decrease β1 activity”. It also gave an IC50 (BCWM.1) of 8.6 nM, an IC50 (BCWM.1/BR) of 17.6 nM and an IC50 (MWCL.1) of 10.2 nM. For the same molecule, the IC50 (MWCL.1/BR) was 16.7 nM, the IC50 (RPCI.WM1) was 3 nM and the IC50 (RPCI.WM1/BR) was 114 nM.
With `CC(C)C[C@H](NC(=O)OCc1ccccc1)C(=O)NC(C=O)Cc1ccccc1` (stereo partly drawn) [Compound 6-2] (Cbz-Leu-[ξF]-aldehyde) the IC50 (B1i; first column of Table 2) was 1000 nM and the IC50 (B1i; second column of Table 2) was 5000 nM.
